The subject of one series is non-CF epithelia. The class given is in vitro ADME, human. On the procedure: FIGS. 1(A-C). Permeability of xylitol added to the apical surface of non-CF epithelia. Xylitol (138 mM in 60 μl) was added to the apical surface of differentiated airway epithelia at time zero. Apical liquid was removed and volume determined at times indicated. Xylitol was measured by NMR. Data are mean±SEM; n=4. Some SEM bars are hidden by symbols.
Airway epithelial cells were isolated from tracheal and bronchial tissue. Cells were seeded onto collagen-coated, semi-permeable membranes (0.6 cm^2 Millicel-HA; Millipore, Bedford, Mass.) and grown at the air-liquid interface as previously described (Smith, J. J., S. M. Travis, E. P. Greenberg, and M. J. Welsh. 1996. Cystic fibrosis airway epithelia fail to kill bacteria because of abnormal airway surface fluid. Cell. 85:229-236; and erratum 287(222); Yamaya, M., W. E. Finbeiner, S. Y. Chun, and J. H. Widdicombe. 1992. Differentiated structure and function of cultures from human tracheal epithelium. Am. J. Physiol. 262:L713-L724; Zabner, J., B. G. Zeiher, E. Friedman, and M. J. Welsh. 1996. […] All epithelia were evaluated with scanning electron microscopy for the development of a ciliated apical surface.
Proton nuclear magnetic resonance spectroscopy was used to measure the xylitol concentration in the fluid on the apical surface. […] Concentrations were then determined by comparing the measured peak integral to a standard curve for xylitol. […]

The test system of series [1] is bacteria from the nasal surface. The experiment in a line: Growth of normal nasal flora from nasal swabs in M9 media. It is filed as cell-based. To be noted: M9 media with 100 mM xylitol, 72 hours at 37° C. Here is the method:
FIGS. 5(A-G). Effect of xylitol on growth of different airway pathogens. A, B and C. Growth of P. aeruginosa (A), S. aureus, (B), and coagulase-negative Staphylococcus (C) were measured as O. D. M9 media alone is indicated by open triangle. Xylitol (closed circle), or succinate, mannitol, or sucrose (open circles), were added to M9 media at 100 mM as indicated. D. Nasal swabs were collected and cultured for 3 days in Lauria-Bertani media (open circles), in minimal M9 media (open squares), or in M9 media supplemented with 100 mM xylitol (closed circles). E, F and G. P. aeruginosa (E), S. aureus (F), and coagulase-negative Staphylococcus (G) were cultured in Lauria-Bertani media alone (open triangles), Lauria-Bertani media with 100 mM xylitol (closed circles), and Lauria-Bertani media containing tobramycin or levofloxacin (open circles).
To test the effect of xylitol on growth of normal nasal flora in a carbon-starved media, nasal swabs were obtained from 3 normal volunteers and the swabs were inoculated into M9 media alone, M9 with 100 mM xylitol, or Lauria-Bertani media. The media were incubated at 37° C. for 72 hours and the O.D. were recorded.
It was tested whether xylitol would support bacterial growth. P. aeruginosa were placed in M9 media, which lacks a carbon source. […] In contrast, there was no growth of P. aeruginosa when M9 media was supplemented with xylitol. […]

Another series concerns CF epithelia. Description: Bacteria deposited into liquid covering CF epithelia. To be noted: bacteria grew on untreated or saline-treated epithelia. The class given is cell-based, human.
The conditions of series [2]: in chewing gum, lozenges, or syrup; cited from earlier work.
The conditions of series [3]: cited from earlier work.

These results are taken from patent publication US6716819B2, “Use of xylitol to reduce ionic strength and activate endogenous antimicrobials for prevention and treatment of infections” (University of Iowa Research Foundation, priority 2000, dated 2004).

Molecules are shown by their SMILES.

In the case of `OC[C@@H](O)[C@H](O)[C@@H](O)CO` [xylitol], the xylitol permeability entry with non-CF epithelia is reported as “not high”. Also, in the series on non-CF epithelia (human, 138 mM), the “time after which approximately half the applied xylitol would diffuse to the basolateral surface” value was around 11 h. In addition, the “growth of bacteria from nasal swabs” value in series [1] was “no growth”. Further, the “fate of bacteria deposited into xylitol-containing liquid covering CF epithelia” value with CF epithelia was “the bacteria were killed”. Further, in series [2], the “decrease in incidence of acute otitis media” value is recorded as 20-40%. In addition, the “toxicity observed after intravenous delivery” value in series [3] (5-50% solution in water at 1-4.5 g/Kg intravenously, changes reversible) was “increases in serum uric acid and elevated liver enzymes”. For the same molecule, the “adverse effect in children” value in series [3] (delivered in large amounts) is recorded as “osmotic diarrhea”.
